In patent publication US20210386367A1, “DEVICES AND SYSTEMS FOR GASTROINTESTINAL MICROBIOME DETECTION AND MANIPULATION” (Progenity, Inc., priority 2018, published 2021):
Converted amounts (≈) assume the structure as drawn. “And” between values parts separate entries of the source, which are not always exact repeats. Identical values can stand only once. Like-named read-outs stand apart in the source and are kept apart here.

How the values were obtained:
[1] = test system: Streptococcus pyogenes clinical isolates; assay: MIC distribution against clinical isolates; assay type: cell-based
Method in brief: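 MIC is the lowest agent concentration preventing growth, determined by broth or agar dilution with serial compound dilutions and incubation under appropriate conditions (e.g., overnight at 37° C.). MIC90 is the concentration inhibiting ≥90% of isolates in the test population.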

[2] = test system: Enterococcus faecalis clinical isolates; assay: MIC distribution against clinical isolates; assay type: cell-based
Excerpt: (§1) As used herein, “minimum inhibitory concentration” or “MIC” refers to the lowest concentration of an antimicrobial agent, for example, an antimicrobial agent as described herein, required to inhibit the growth of an organism.
(§2) Many susceptibility testing methods are known in the art and can be used as described herein (see, e.g., Jorgensen and Ferraro (2009) Clinical Infectious Diseases 49:1749-1755; and Maurer et al. (2017) Infectious Disease Reports 9:6839; the entire contents of each of the foregoing are incorporated herein by reference). For example, antimicrobial susceptibility can be determined using conventional culture based methods such as the broth or agar dilution test. In these dilution tests, the bacterial isolate of interest is inoculated onto different media that include serial dilutions of an antimicrobial agent, and incubated under appropriate conditions (e.g., overnight at 37° C.) to allow for growth to occur. Following the incubation period, the media is examined to determine bacterial growth. The lowest concentration of antibiotic that prevents growth represents the minimal inhibitory concentration (MIC). Broth dilution tests can be miniaturized and mechanized allowing for reproducibility and high throughput.

[3] = test system: Staphylococcus aureus clinical isolates; assay: MIC distribution against clinical isolates; assay type: cell-based
Excerpt: as §1, §2

[4] = test system: E. coli, Streptococcus spp., and Bacteroides spp. isolates; assay type: cell-based; conditions: across the evaluated isolates
Experimental: Initial values of the MIC were determined by agar dilution in accordance with guidelines from the Clinical and Laboratory Standards Institute (CLSI; (1) “Methods for Dilution Antimicrobial Susceptibility Tests for Bacteria That Grow Aerobically; Approved Standard; 11th ed.,” CLSI standard M07, 2018; (2) “Methods for Antimicrobial Susceptibility Testing of Anaerobic Bacteria; Approved Standard—Eighth Edition,” CLSI document M11-A8, 2012.).
If there were no colonies on the antibiotic selection plates, the spontaneous mutation frequency was reported as less than the frequency observed with one colony to indicate that the spontaneous mutation frequency was less than the limit of detection (one CFU). […] The mutation prevention concentration (MPC) was reported as the lowest concentration for which no mutants were selected.

[5] = test system: B. vulgatus ATCC 8482; assay: Time-kill assay; assay type: cell-based, Bacteroides vulgatus; conditions: 2×, 4×, 8× MIC; 2, 6, 24, 48 hr
[6] = test system: E. coli MMX 1312; assay: Time-kill assay; assay type: cell-based, Escherichia coli; conditions: 2×, 4×, 8× MIC; 2, 6, 24 hr
[7] = test system: Clostridium spp.; assay: Agar dilution MIC, 10 clinical isolates; assay type: cell-based; conditions: for Mode: modal MIC
[8] = test system: Streptococcus spp. spontaneous mutants; conditions: S. pneumoniae ATCC 49619; CLSI QC range shown in parentheses; cited from earlier work
[9] = MIC 0.06 μg/mL, 19 S. pyogenes isolates
[10] = MIC 0.5 μg/mL, 50 E. faecalis isolates
[11] = MIC 32 μg/mL, 50 S. aureus isolates
[12] = 10 Clostridium spp. clinical isolates
[13] = MIC 0.5 μg/mL, 19 S. pyogenes isolates
[14] = MIC 0.06 μg/mL, 50 E. faecalis isolates
[15] = MIC 2 μg/mL, 50 E. faecalis isolates
[16] = MIC 4 μg/mL, 50 E. faecalis isolates
[17] = MIC 8 μg/mL, 50 E. faecalis isolates
[18] = MIC >8 μg/mL, 50 E. faecalis isolates
[19] = MIC 0.015 μg/mL, 50 S. aureus isolates
[20] = MIC 0.03 μg/mL, 50 S. aureus isolates
[21] = MIC 0.06 μg/mL, 50 S. aureus isolates
[22] = MIC 0.5 μg/mL, 50 S. aureus isolates
[23] = MIC 1 μg/mL, 50 S. aureus isolates
[24] = MIC 2 μg/mL, 50 S. aureus isolates
[25] = MIC 4 μg/mL, 50 S. aureus isolates
[26] = MIC 8 μg/mL, 50 S. aureus isolates
[27] = MIC >8 μg/mL, 50 S. aureus isolates
[28] = MIC 0.008 μg/mL, 19 S. pyogenes isolates
[29] = MIC ≤0.004 μg/mL, 19 S. pyogenes isolates
[30] = MIC 0.03 μg/mL, 19 S. pyogenes isolates
[31] = MIC 1 μg/mL, 50 E. faecalis isolates
[32] = MIC 16 μg/mL, 50 E. faecalis isolates
[33] = MIC >64 μg/mL, 50 E. faecalis isolates
[34] = MIC […], 50 E. faecalis isolates
[35] = MIC 16 μg/mL, 50 S. aureus isolates
[36] = MIC 64 μg/mL, 50 S. aureus isolates
[37] = MIC >64 μg/mL, 50 S. aureus isolates
[38] = MIC >32 μg/mL, 50 E. faecalis isolates

With CO[C@H]1/C=C/O[C@@]2(C)Oc3c(C)c(O)c4c(O)c(c5c(nc6cc(C)ccn65)c4c3C2=O)NC(=O)/C(C)=C\C=C\[C@H](C)[C@H](O)[C@@H](C)[C@@H](O)[C@@H](C)[C@H](OC(C)=O)[C@@H]1C [rifaximin] the “Number of test isolates at MIC” value [1, 9] was 6, the “Number of test isolates at MIC” value [2, 10] was 5 and the “Cumulative percentage of isolates inhibited at MIC” value ([3]; MIC 0.008 μg/mL, 50 S. aureus isolates) was 8.0%. The “Cumulative percentage of isolates inhibited at MIC” value [3, 11] was 100.0%, the “Number of test isolates at MIC” value [3, 11] was 1 and the “Cumulative percentage of isolates inhibited at MIC” value ([3]; listed as RFX) was 70.0% and 78.0% and 94.0% and 98.0%. The MPC values [4] was “In no instance was an MPC able to be reported”, the “time-kill kinetics outcome (bactericidal = ≥3 log reduction in CFU per mL)” value [5] was “bactericidal against this organism at 8×MIC at 6 hr; and at 2 and 4×MIC at 6, 24 and 48 hr” and the “time-kill kinetics outcome (bactericidal = ≥3 log reduction in CFU per mL)” value [6] was “Regrowth was also observed for all concentrations”. It also gave an MIC50 [7] of over 64 µg/mL, an MIC90 [7] of over 64 µg/mL and an MIC50 [7, 12] of over 64 µg/mL. The MIC90 [7, 12] was over 64 µg/mL and the Mode [7, 12] was over 64 µg/mL.

In the case of COc1c(N2C[C@@H]3CCCN[C@@H]3C2)c(F)cc2c(=O)c(C(=O)O)cn(C3CC3)c12 [moxifloxacin], the “Cumulative percentage of isolates inhibited at MIC” value [1, 9] is reported as 31.6%, the “Number of test isolates at MIC” value [1, 9] is reported as 6 and the “Cumulative percentage of isolates inhibited at MIC” value [1, 13] is reported as 100.0%. The “Number of test isolates at MIC” value [1, 13] was 1, the “Cumulative percentage of isolates inhibited at MIC” value [2, 14] was 2.0% and the “Number of test isolates at MIC” value [2, 14] was 1. The “Cumulative percentage of isolates inhibited at MIC” value [2, 10] was 52.0%, the “Number of test isolates at MIC” value [2, 10] was 4 and the “Cumulative percentage of isolates inhibited at MIC” value [2, 15] was 54.0%. The “Number of test isolates at MIC” value [2, 15] was 1, the “Cumulative percentage of isolates inhibited at MIC” value [2, 16] was 56.0% and the “Number of test isolates at MIC” value [2, 16] was 1. For the same molecule, the “Cumulative percentage of isolates inhibited at MIC” value [2, 17] was 66.0%, the “Number of test isolates at MIC” value [2, 17] was 5 and the “Cumulative percentage of isolates inhibited at MIC” value [2, 18] was 100.0%. The “Number of test isolates at MIC” value [2, 18] was 17, the “Cumulative percentage of isolates inhibited at MIC” value [3, 19] was 14.0% and the “Number of test isolates at MIC” value [3, 19] was 7. The “Cumulative percentage of isolates inhibited at MIC” value [3, 20] was 30.0%, the “Number of test isolates at MIC” value [3, 20] was 8 and the “Cumulative percentage of isolates inhibited at MIC” value [3, 21] was 48.0%. The “Number of test isolates at MIC” value [3, 21] was 9, the “Number of test isolates at MIC” value [3, 22] was 4 and the “Cumulative percentage of isolates inhibited at MIC” value [3, 23] was 84.0%. The “Number of test isolates at MIC” value [3, 23] was 12, the “Cumulative percentage of isolates inhibited at MIC” value [3, 24] was 94.0% and the “Number of test isolates at MIC” value [3, 24] was 5. For the same molecule, the “Cumulative percentage of isolates inhibited at MIC” value [3, 25] was 96.0%, the “Number of test isolates at MIC” value [3, 25] was 1 and the “Cumulative percentage of isolates inhibited at MIC” value [3, 26] was 98.0%. For the same molecule, the “Number of test isolates at MIC” value [3, 26] was 1, the “Cumulative percentage of isolates inhibited at MIC” value [3, 27] was 100.0% and the “Number of test isolates at MIC” value [3, 27] was 1. The “Number of test isolates at MIC” value ([3]; MIC […], 50 S. aureus isolates) was 1.

With Penicillin the “Cumulative percentage of isolates inhibited at MIC” value [1] was 100.0%, the “Number of test isolates at MIC” value [1] was 1 and the “Cumulative percentage of isolates inhibited at MIC” value [1, 28] was 94.7%. For the same molecule, the “Number of test isolates at MIC” value [1, 28] was 8, the “Cumulative percentage of isolates inhibited at MIC” value [1, 29] was 52.6% and the “Number of test isolates at MIC” value [1, 29] was 10. The “MIC, CLSI QC range” value [8] was “(0.06-0.25) μg/mL”.

With “piperacillin/tazobactam [piperacillin-tazobactam]” the “Cumulative percentage of isolates inhibited at MIC” value [1, 30] was 21.1%, the “Number of test isolates at MIC” value [1, 30] was 4 and the “Cumulative percentage of isolates inhibited at MIC” value [1, 9] was 89.5%. For the same molecule, the “Number of test isolates at MIC” value [1, 9] was 13, the “Number of test isolates at MIC” value ([1]; MIC […], 19 S. pyogenes isolates) was 1 and the “Cumulative percentage of isolates inhibited at MIC” value [2, 31] was 10.0%. For the same molecule, the “Number of test isolates at MIC” value [2, 31] was 4, the “Cumulative percentage of isolates inhibited at MIC” value [2, 15] was 32.0% and the “Number of test isolates at MIC” value [2, 15] was 11. The “Cumulative percentage of isolates inhibited at MIC” value [2, 16] was 70.0%, the “Number of test isolates at MIC” value [2, 16] was 19 and the “Cumulative percentage of isolates inhibited at MIC” value [2, 17] was 90.0%. For the same molecule, the “Number of test isolates at MIC” value [2, 17] was 10, the “Cumulative percentage of isolates inhibited at MIC” value [2, 32] was 98.0% and the “Number of test isolates at MIC” value [2, 32] was 4. For the same molecule, the “Cumulative percentage of isolates inhibited at MIC” value [2, 33] was 100.0%, the “Number of test isolates at MIC” value [2, 33] was 1 and the “Cumulative percentage of isolates inhibited at MIC” value [2, 34] was 2.0%. For the same molecule, the “Number of test isolates at MIC” value [2, 34] was 1, the “Cumulative percentage of isolates inhibited at MIC” value [3, 22] was 6.0% and the “Number of test isolates at MIC” value [3, 22] was 3. The “Cumulative percentage of isolates inhibited at MIC” value [3, 23] was 24.0%, the “Number of test isolates at MIC” value [3, 23] was 9 and the “Cumulative percentage of isolates inhibited at MIC” value [3, 24] was 42.0%. For the same molecule, the “Number of test isolates at MIC” value [3, 24] was 9, the “Cumulative percentage of isolates inhibited at MIC” value [3, 25] was 46.0% and the “Number of test isolates at MIC” value [3, 25] was 2. For the same molecule, the “Cumulative percentage of isolates inhibited at MIC” value [3, 26] was 52.0%, the “Number of test isolates at MIC” value [3, 26] was 3 and the “Cumulative percentage of isolates inhibited at MIC” value [3, 35] was 54.0%. For the same molecule, the “Number of test isolates at MIC” value [3, 35] was 1, the “Cumulative percentage of isolates inhibited at MIC” value [3, 11] was 66.0% and the “Number of test isolates at MIC” value [3, 11] was 6. The “Cumulative percentage of isolates inhibited at MIC” value [3, 36] was 92.0%, the “Number of test isolates at MIC” value [3, 36] was 13 and the “Cumulative percentage of isolates inhibited at MIC” value [3, 37] was 100.0%. For the same molecule, the “Number of test isolates at MIC” value [3, 37] was 4.

With Cc1ncc([N+](=O)[O-])n1CCO [MTZ] the “% S” value [7, 12] was 100%, the MIC50 [7, 12] was 1 µg/mL (≈ 5.84 µM) and the MIC90 [7, 12] was 1 µg/mL (≈ 5.84 µM). It also gave an MIC range [7, 12] of 0.12 to 2 µg/mL and a Mode [7, 12] of 1 µg/mL.

With CN[C@H](CC(C)C)C(=O)N[C@H]1C(=O)N[C@@H](CC(N)=O)C(=O)N[C@H]2C(=O)N[C@H]3C(=O)N[C@H](C(=O)N[C@H](C(=O)O)c4cc(O)cc(O)c4-c4cc3ccc4O)[C@H](O)c3ccc(c(Cl)c3)Oc3cc2cc(c3O[C@@H]2O[C@H](CO)[C@@H](O)[C@H](O)[C@H]2O[C@H]2C[C@](C)(N)[C@H](O)[C@H](C)O2)Oc2ccc(cc2Cl)[C@H]1O [vancomycin, Vancomycin] the “Cumulative percentage of isolates inhibited at MIC” value ([1]; listed as VAN) was 89.5% and 100.0%, the “Cumulative percentage of isolates inhibited at MIC” value [2, 38] was 100.0% and the “Number of test isolates at MIC” value [2, 38] was 13. For the same molecule, the “Cumulative percentage of isolates inhibited at MIC” value ([2]; listed as VAN) was 48.0% and 64.0% and 72.0% and 74.0% and the “Cumulative percentage of isolates inhibited at MIC” value [3, 23] was 100.0%.
